Reference: patent publication US20050267067A1, “Radical reaction inhibitors, method for inhibition of radical reactions, and use thereof” (priority 2002, published 2005)
Values belong to the compound of their own block, whether it stands above or below them.

What was measured:
calf serum albumin (BSA) = test: Modification of BSA by lipid peroxides (protein carbonyl, OLAARPs); format: biochemical; conditions: for OLAARPs Formation: (%) / Protein carbonyl Formation: (%): BSA, versus no saccharide; for Formed OLAARPs / Formed Protein carbonyl: 37° C., 24 hours
Description: In this experiment, saccharide solutions were prepared to give an equal total saccharide molar concentration in each solution.
As a negative control, PBS was used.
To five milliliters of either of the above saccharide solutions for testing or the negative control was added 10 mg of calf serum albumin (BSA) or L-lysine, followed by dissolving. To each of the resulting solutions was added 25 μg of 2,4-decadienal or malondialdehyde (MDA) as a lipid peroxide, followed by reaction at 37° C. for 24 hours. After completion of the reaction, protein carbonyl and reaction products of oxidized lipids/aminoacids (OLAARPs) formed as aldehyde adducts were quantified on the calorimetric method. […] The formation levels of protein carbonyl and OLAARPs were determined based on the absorbances obtained in this experiment, in terms of the molar absorbance coefficient for each molecule as disclosed in Biochim. Biophys.
To each of the resulting mixtures was added 600 μl of 30% trichloroacetic acid, and the mixture was allowed to stand at 0° C. for one hour and centrifuged at 10,000 rpm for 15 min to obtain a precipitate, followed by washing the resulting precipitate four times with two milliliters of ethanol/ethylacetate (1:1), respectively, adding 1.5 ml of 6M-guanidine hydrochloride/20 mM-NaPi/TFA (pH 2.3) to the resultant, allowing the mixture to stand at 37° C. for 30 min, and measuring the absorbance of the resulting mixture at a wavelength of 580 nm, ε=35,000 M^−1 cm^−1.

[1] = Inhibition of hydroxy radical formation (H2O2/iron sulfate, DMPO spin trap, ESR); conditions: for Amount of formed hydroxy radical: ESR peak ratio to Mn2+ standard, relative value; for Hydroxy radical formation (%): versus system with no saccharide
Description: Each of the resulting mixtures was mixed to initiate reaction, injected into a cell for measuring electron spin resonance spectrum (ESR), set to a detector, and measured for formation level of hydroxy radical at a prescribed period of time after initiating reaction. […] For measurement of ESR, “Free Radical Monitor JES-FR30” was used, and the formation level of hydroxy radical was determined by calculating a ratio of a peak level detected first after initiating the measurement among the characteristic signal peaks characteristic of 5,5-dimethyl-1-pyrroline-oxide-OH (hydroxy radical), used as a spin trapping agent, and a peak level of Mn^2+ of an external standard installed in the apparatus of “JES-FR30”, and expressed as relative values in Table 1.

[2] = Oxidation of rat small intestinal mucosal enzyme solution by AAPH (conjugated diene, TBARS); format: biochemical
Description: As a model system for examining the influence of cyclotetrasaccharide on small intestinal mucous disorders, there was provided a system for examining the influence of cyclotetrasaccharide on the oxidation of a rat small intestinal mucosal enzyme solution by 2,2-azo-bis(2-amidinopropane)-dihydrochloric acid (AAPH).
To two grams of a rat small intestinal mucosal acetone powder, commercialized by Sigma Chemical Company, St. Louis, Mo., USA, was added 20 ml of 50 mM PBS (pH 7.2) and homogenized in ice bath. The mixture was centrifuged at 10,000 rpm for 10 min to obtain a supernatant for use as a rat small intestinal mucosal enzyme solution containing 10 mg/ml of proteins. A half milliliter of the rat small intestinal mucosal enzyme solution, 0.5 ml of a 100 mM AAPH solution, and 0.5 ml of a 200 mM of the crystalline cyclotetrasaccharide pentahydrate prepared in Experiment 1-1 were mixed, followed by incubation at 37° C. for […]. During the incubation, the mixture was sampled at two and six hours after initiating the incubation for quantifying the formed conjugated diene, while the specimens sampled at six hours after initiating the incubation were quantified for the formed TBARS.

sucrase = test: Sucrase activity of rat small intestinal mucosal enzyme solution after AAPH oxidation; format: biochemical
Description: One milliliter of the above rat small intestinal mucosal enzyme solution, one milliliter of a 100 mM AAPH solution, one milliliter of a 50 mM phosphate buffer (pH 7.2), and one milliliter of a 400 mM of the crystalline cyclotetrasaccharide pentahydrate prepared in Experiment 1-1 were mixed, incubated at 37° C. for two hours, and measured for the activities of sucrase and maltase.
After incubated at 37° C. for 30 min, the mixture was quantified for free glucose by the GOD method.

maltase = test: Maltase activity of rat small intestinal mucosal enzyme solution after AAPH oxidation; format: biochemical
Description: One milliliter of the above rat small intestinal mucosal enzyme solution, one milliliter of a 100 mM AAPH solution, one milliliter of a 50 mM phosphate buffer (pH 7.2), and one milliliter of a 400 mM of the crystalline cyclotetrasaccharide pentahydrate prepared in Experiment 1-1 were mixed, incubated at 37° C. for two hours, and measured for the activities of sucrase and maltase. […] To a half milliliter of a maltose solution, which had been prepared by dissolving maltose in 50 mM sodium maleate (pH 6.6) to give a concentration of one percent (%), 0.05 ml of a AAPH-rat small intestinal mucosal enzyme solution. After incubated at 37° C. for 30 min, the mixture was quantified for free glucose by the GOD method. One unit (U) activity of maltase was defined as an enzyme amount that releases two micromoles of glucose per minutes from maltose at 37° C.

[3] = Preservation of vitamin D3 tablets at 60° C., absorbance at 265 nm; format: physicochemical; conditions: after preserving for 14 days
[4] = added lipid peroxide 2,4-decadienal
[5] = added lipid peroxide malondialdehyde (MDA)
[6] = 2,4-decadienal, listed as cyclotetrasaccharide
[7] = MDA, listed as cyclotetrasaccharide
[8] = enzyme solution incubated with AAPH at 37° C. for two hours, with or without cyclotetrasaccharide
[9] = versus system with no AAPH, 37° C., two hours

SMILES: OC[C@H]1O[C@H](O[C@H]2O[C@H](CO)[C@@H](O)[C@H](O)[C@H]2O)[C@H](O)[C@@H](O)[C@@H]1O [α, α-Trehalose, α, α-trehalose, reference compound]
OLAARPs Formation: (%) (calf serum albumin (BSA); 2,4-decadienal): (63) % | Protein carbonyl Formation: (%) (calf serum albumin (BSA); 2,4-decadienal): (58) % | OLAARPs Formation: (%) (calf serum albumin (BSA); MDA): (56) % | Protein carbonyl Formation: (%) (calf serum albumin (BSA); MDA): (60) % | Formed OLAARPs (calf serum albumin (BSA); [4]): 2.67 μmol/g-BSA | Formed Protein carbonyl (calf serum albumin (BSA); [4]): 8.26 μmol/g-BSA | Formed OLAARPs (calf serum albumin (BSA); [5]): 3.24 μmol/g-BSA | Formed Protein carbonyl (calf serum albumin (BSA); [5]): 1.45 μmol/g-BSA

Formed conjugated diene ([2]; reaction time 0 hr, AAPH, 37° C.): 0.00 μg/mg-protein | Formed conjugated diene ([2]; reaction time 2 hr, AAPH, 37° C.): 2.46 μg/mg-protein | Conjugated diene formation: (%) ([2]; reaction time 2 hr, versus system with no cyclotetrasaccharide): (15) % | Formed conjugated diene ([2]; reaction time 6 hr, AAPH, 37° C.): 61.84 μg/mg-protein | Conjugated diene formation: (%) ([2]; reaction time 6 hr, versus system with no cyclotetrasaccharide): (60) % | Formed TBARS ([2]; six hours after initiating the incubation, AAPH, 37° C.): 3.71 µg/mg-protein | TBARS formation (%) ([2]; six hours, versus system with no cyclotetrasaccharide): (61) % | Sucrase activity (sucrase; [8]): 0.0105 u/mg-protein | Sucrase Relative residual activity (%) (sucrase; [9]): (72) % | Maltase activity (maltase; [8]): 0.0669 u/mg-protein | Maltase Relative residual activity (%) (maltase; [9]): (85) % | residual vitamin D3 (%) [3]: 61%
SMILES: OCC1OC2OCC3O[C@H](O[C@H]4C(O)C(CO)OC(OCC5O[C@H](O[C@@H](C1O)C2O)C(O)C(O)[C@@H]5O)C4O)C(O)C(O)[C@@H]3O (stereo partly drawn) [Cyclotetrasaccharide, cyclo{→6}-α-D-glucopyranosyl-(1→3)-α-D-glucopyranosyl-(1→6)-α-D-glucopyranosyl-(1→3)-α-D-glucopyranosyl-(1→}]
Amount of formed hydroxy radical ([1]; 15 mM saccharide): 1.009 | Hydroxy radical formation (%) ([1]; 15 mM saccharide): (34) % | Hydroxy radical formation (%) ([1]; 15 mM saccharide, listed as cyclotetrasaccharide): about 34% | Amount of formed hydroxy radical ([1]; 38 mM saccharide): 0.265 | Hydroxy radical formation (%) ([1]; 38 mM saccharide): (9) % | Hydroxy radical formation (%) ([1]; 38 mM saccharide, listed as cyclotetrasaccharide): about 9% | Amount of formed hydroxy radical ([1]; 75 mM saccharide): 0.228 | Hydroxy radical formation (%) ([1]; 75 mM saccharide): (8) % | Amount of formed hydroxy radical ([1]; 150 mM saccharide): 0.125 | Hydroxy radical formation (%) ([1]; 150 mM saccharide): (4) % | OLAARPs Formation: (%) (calf serum albumin (BSA); 2,4-decadienal): (69) % | Protein carbonyl Formation: (%) (calf serum albumin (BSA); 2,4-decadienal): (45) % | OLAARPs Formation: (%) (calf serum albumin (BSA); [6]): about 69% | Protein carbonyl Formation: (%) (calf serum albumin (BSA); [6]): about 45% | OLAARPs Formation: (%) (calf serum albumin (BSA); MDA): (80) % | Protein carbonyl Formation: (%) (calf serum albumin (BSA); MDA): (45) % | OLAARPs Formation: (%) (calf serum albumin (BSA); [7]): about 80% | Protein carbonyl Formation: (%) (calf serum albumin (BSA); [7]): about 45% | Formed OLAARPs (calf serum albumin (BSA); [4]): 2.92 μmol/g-BSA | Formed Protein carbonyl (calf serum albumin (BSA); [4]): 6.34 μmol/g-BSA | Formed OLAARPs (calf serum albumin (BSA); [5]): 4.68 μmol/g-BSA | Formed Protein carbonyl (calf serum albumin (BSA); [5]): 1.09 μmol/g-BSA
